Test results reported in patent US7176224B2, “Oxazolyl-aryloxyacetic acid derivatives and their use as PPAR agonists” (Eli Lilly and Company, priority 2000, dated 2007).

Experiments:
huPPARγ [1] = assay: Cotransfection assay in CV-1 cells, luciferase reporter; type: cell-based, human; conditions: GAL4 chimeric system, relative to agonist reference molecule
Description: […] binding (ABCD binding) was carried out using SPA technology with PPAR receptors. […] Cotransfection assays were carried out in CV-1 cells. The reporter plasmid contained an acylCoA oxidase (AOX) PPRE and TK promoter upstream of the luciferase reporter cDNA. Appropriate PPARs and RXRα were constitutively expressed using plasmids containing the CMV promoter. […] In order to eliminate such interference, a GAL4 chimeric system was used in which the DNA binding domain of the transfected PPAR was replaced by that of GAL4, and the GAL4 response element was utilized in place of the AOX PPRE. […] Efficacies were determined by computer fit to a concentration-response curve, or in some cases at a single high concentration of agonist (10 μM). For binding or cotransfection studies with receptors other than PPARs, similar assays were carried out using appropriate ligands, receptors, reporter constructs, etc., for that particular receptor.
(§1) These studies were carried out to evaluate the ability of compounds of the invention to bind to and/or activate various nuclear transcription factors, particularly huPPARα (“hu” indicates “human”) and huPPARγ. These studies provide in vitro data concerning efficacy and selectivity of compounds of the invention. Furthermore, binding and cotransfection data for compounds of the invention were compared with corresponding data for marketed compounds that act on either huPPARα or huPPARγ.

huPPARγ [2] = target: T1, huPPARγ (Homo sapiens, UniProt P37231); assay: DNA-dependent binding (ABCD binding), SPA, radioligand displacement; conditions: tritium-labeled PPARγ agonist radioligand
T1 sequence (P37231 1-505): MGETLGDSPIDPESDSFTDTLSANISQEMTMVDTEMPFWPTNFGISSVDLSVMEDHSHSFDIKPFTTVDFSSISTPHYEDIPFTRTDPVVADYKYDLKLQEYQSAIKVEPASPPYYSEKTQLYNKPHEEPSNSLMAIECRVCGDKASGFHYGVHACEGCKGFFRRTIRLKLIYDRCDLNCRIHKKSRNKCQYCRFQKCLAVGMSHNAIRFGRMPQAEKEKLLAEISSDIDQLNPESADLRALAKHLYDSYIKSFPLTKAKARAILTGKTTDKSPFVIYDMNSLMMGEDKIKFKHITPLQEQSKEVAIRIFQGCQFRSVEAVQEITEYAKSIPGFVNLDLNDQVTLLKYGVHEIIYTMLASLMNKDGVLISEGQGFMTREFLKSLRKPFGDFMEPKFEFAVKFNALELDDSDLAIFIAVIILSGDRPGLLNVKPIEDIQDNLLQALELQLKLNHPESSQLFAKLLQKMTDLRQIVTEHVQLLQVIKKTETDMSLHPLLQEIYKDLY
T1 sequence (P19793 1-462 partner): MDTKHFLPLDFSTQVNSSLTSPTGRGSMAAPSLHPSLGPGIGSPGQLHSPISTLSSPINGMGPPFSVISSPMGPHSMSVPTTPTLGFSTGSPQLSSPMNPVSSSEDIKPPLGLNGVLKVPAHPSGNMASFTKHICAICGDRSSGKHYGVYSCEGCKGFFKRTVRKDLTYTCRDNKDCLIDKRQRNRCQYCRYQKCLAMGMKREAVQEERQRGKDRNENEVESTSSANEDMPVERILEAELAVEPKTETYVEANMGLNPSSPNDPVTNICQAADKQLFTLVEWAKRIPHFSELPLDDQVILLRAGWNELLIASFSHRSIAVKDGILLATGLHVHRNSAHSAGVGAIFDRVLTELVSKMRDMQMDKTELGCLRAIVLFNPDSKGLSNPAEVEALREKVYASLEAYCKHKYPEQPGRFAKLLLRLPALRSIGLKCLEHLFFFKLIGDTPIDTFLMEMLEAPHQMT
Description: (§2) […] binding (ABCD binding) was carried out using SPA technology with PPAR receptors. Tritium-labeled PPARα and PPARγ agonists were used as radioligands for generating displacement curves and IC50 values with compounds of the invention. Cotransfection assays were carried out in CV-1 cells. The reporter plasmid contained an acylCoA oxidase (AOX) PPRE and TK promoter upstream of the luciferase reporter cDNA. Appropriate PPARs and RXRα were constitutively expressed using plasmids containing the CMV promoter. […] In order to eliminate such interference, a GAL4 chimeric system was used in which the DNA binding domain of the transfected PPAR was replaced by that of GAL4, and the GAL4 response element was utilized in place of the AOX PPRE. Cotransfection efficacy was determined relative to PPARα agonist and […] reference molecules. Efficacies were determined by computer fit to a concentration-response curve, or in some cases at a single high concentration of agonist (10 μM). For binding or cotransfection studies with receptors other than PPARs, similar assays were carried out using appropriate ligands, receptors, reporter constructs, etc., for that particular receptor.
as §1

huPPARα [3] = target: T2, huPPARα (Homo sapiens, UniProt Q07869); assay: as above; conditions: tritium-labeled PPARα agonist radioligand
T2 sequence (Q07869 1-468): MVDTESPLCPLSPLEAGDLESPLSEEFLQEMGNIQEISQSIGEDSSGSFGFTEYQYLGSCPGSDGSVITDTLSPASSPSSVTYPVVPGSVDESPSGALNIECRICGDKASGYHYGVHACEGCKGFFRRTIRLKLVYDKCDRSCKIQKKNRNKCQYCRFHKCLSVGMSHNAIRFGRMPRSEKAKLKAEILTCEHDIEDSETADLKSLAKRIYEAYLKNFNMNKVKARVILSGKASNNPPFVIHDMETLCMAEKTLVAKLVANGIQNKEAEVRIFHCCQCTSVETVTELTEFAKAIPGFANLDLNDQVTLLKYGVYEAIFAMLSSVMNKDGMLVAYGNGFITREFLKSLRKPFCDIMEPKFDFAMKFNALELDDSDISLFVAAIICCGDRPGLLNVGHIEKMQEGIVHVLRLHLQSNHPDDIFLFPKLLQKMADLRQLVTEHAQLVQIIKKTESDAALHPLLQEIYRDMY
T2 sequence (P19793 1-462 partner): T1 sequence (P19793 1-462 partner)
Description: as §2, §1

huPPARα [4] = assay: Cotransfection assay in CV-1 cells, luciferase reporter; type: cell-based, human; conditions: GAL4 chimeric system, relative to PPARα agonist reference molecule
Description: […] binding (ABCD binding) was carried out using SPA technology with PPAR receptors. Tritium-labeled PPARα and PPARγ agonists were used as radioligands for generating displacement curves and IC50 values with compounds of the invention. Cotransfection assays were carried out in CV-1 cells. The reporter plasmid contained an acylCoA oxidase (AOX) PPRE and TK promoter upstream of the luciferase reporter cDNA. Appropriate PPARs and RXRα were constitutively expressed using plasmids containing the CMV promoter. For PPARα and […], interference by endogenous […] in CV-1 cells was an issue. In order to eliminate such interference, a GAL4 chimeric system was used in which the DNA binding domain of the transfected PPAR was replaced by that of GAL4, and the GAL4 response element was utilized in place of the AOX PPRE. Cotransfection efficacy was determined relative to PPARα agonist and […] reference molecules. Efficacies were determined by computer fit to a concentration-response curve, or in some cases at a single high concentration of agonist (10 μM). For binding or cotransfection studies with receptors other than PPARs, similar assays were carried out using appropriate ligands, receptors, reporter constructs, etc., for that particular receptor.
as §1

With `Cc1oc(-c2ccc(-c3cccs3)cc2)nc1CCOc1ccc(CC(C)(Oc2cccc(F)c2)C(=O)O)cc1` (centres unmarked) [Example 22, 2-(3-Fluoro-phenoxy)-2-methyl-3-(4-{2-[5-methyl-2-(4-thiophen-2-yl-phenyl)-oxazol-4-yl]-ethoxy}-phenyl)-propionic acid] the “huPPARγ CTF Efficacy” value (huPPARγ [1]) was 100%, the IC50 (huPPARγ [2]) was 78 nM and the IC50 (huPPARα [3]) was 260 nM. The “huPPARα CTF Efficacy” value (huPPARα [4]) was 63%.

With `Cc1cccc(OC(C)(Cc2ccc(OCCc3nc(-c4cccc(-c5ccccc5)c4)oc3C)cc2)C(=O)O)c1` (centres unmarked) [Example 48, 3-{4-[2-(2-Biphenyl-3-yl-5-methyl-oxazol-4-yl)-ethoxy]-phenyl}-2-methyl-2-m-tolyloxy-propionic acid] the “huPPARγ CTF Efficacy” value (huPPARγ [1]) was 145%, the IC50 (huPPARγ [2]) was 54 nM and the IC50 (huPPARα [3]) was 182 nM. The “huPPARα CTF Efficacy” value (huPPARα [4]) was 45%.

`Cc1oc(-c2ccc(-c3cccs3)cc2)nc1CCOc1ccc(CC(C)(Oc2ccc(C(C)(C)C)cc2)C(=O)O)cc1` (centres unmarked) [Example 17, 2-Methyl-3-(4-{2-[5-methyl-2-(4-thiophen-2-yl-phenyl)-oxazol-4-yl]-ethoxy}-phenyl)-2-(4-tert-butylphenoxy)-propionic acid] was tested, and the “huPPARγ CTF Efficacy” value (huPPARγ [1]) was 80%, the IC50 (huPPARγ [2]) was 119 nM and the IC50 (huPPARα [3]) was 186 nM. The “huPPARα CTF Efficacy” value (huPPARα [4]) was 116%.

For `COc1cc(CC(C)(Oc2ccccc2)C(=O)O)ccc1OCCc1nc(-c2cccc(-c3ccccc3)c2)oc1C` (centres unmarked) [Example 8, 3-{4-[2-(2-Biphenyl-3-yl-5-methyloxazol-4-yl)ethoxy]-3-methoxyphenyl}-2-methyl-2-phenoxypropionic acid], the “huPPARγ CTF Efficacy” value (huPPARγ [1]) was 91%, the IC50 (huPPARγ [2]) was 41 nM and the IC50 (huPPARα [3]) was 605 nM. For the same molecule, the “huPPARα CTF Efficacy” value (huPPARα [4]) was 45%.

For `Cc1oc(-c2ccc(-c3ccccc3)cc2)nc1CCOc1ccc(CC(C)(Oc2ccc(C(C)(C)C)cc2)C(=O)O)cc1` (centres unmarked) [Example 15, 3-{4-[2-(2-Biphenyl-4-yl-5-methyl-oxazol-4-yl)-ethoxy]-phenyl}-2-methyl-2-(4-tert-butylphenoxy)-propionic acid], the “huPPARγ CTF Efficacy” value (huPPARγ [1]) was 90%, the IC50 (huPPARγ [2]) was 107 nM and the IC50 (huPPARα [3]) was 196 nM. The “huPPARα CTF Efficacy” value (huPPARα [4]) was 96%.

In the case of `Cc1oc(-c2cccc(-c3ccccc3)c2)nc1CCOc1ccc(CC(C)(Oc2ccc3c(c2)OCO3)C(=O)O)cc1` (centres unmarked) [Example 58, 2-(Benzo[1,3]dioxol-5-yloxy)-3-{4-[2-(2-biphenyl-3-yl-5-methyl-oxazol-4-yl)-ethoxy]-phenyl}-2-methyl-propionic acid], the “huPPARγ CTF Efficacy” value (huPPARγ [1]) is reported as 101%, the IC50 (huPPARγ [2]) is reported as 37 nM and the IC50 (huPPARα [3]) is reported as 145 nM. For the same molecule, the “huPPARα CTF Efficacy” value (huPPARα [4]) was 48%.

In the case of `CCC(Cc1ccc(OCCc2nc(-c3cccc(-c4cccs4)c3)oc2C)cc1)(Oc1ccccc1)C(=O)O` (centres unmarked) [Example 42, 2-(4-{2-[5-Methyl-2-(3-thiophen-2-yl-phenyl)-oxazol-4-yl]-ethoxy}-benzyl)-2-phenoxy-butyric acid], the “huPPARγ CTF Efficacy” value (huPPARγ [1]) is reported as 105%, the IC50 (huPPARγ [2]) is reported as 56 nM and the IC50 (huPPARα [3]) is reported as 310 nM. The “huPPARα CTF Efficacy” value (huPPARα [4]) was 49%.

`CC(C)(Oc1ccc(C(=O)c2ccc(Cl)cc2)cc1)C(=O)O` [Fenofibric acid, reference compound] was tested, and the “huPPARγ CTF Efficacy” value (huPPARγ [1]) was 0% and the “huPPARα CTF Efficacy” value (huPPARα [4]) was 16%.

For `COc1cc(CC(C)(Oc2ccccc2)C(=O)O)ccc1OCCc1nc(-c2ccc(-c3ccccc3)cc2)oc1C` (centres unmarked) [Example 7, 3-{4-[2-(2-Biphenyl-4-yl-5-methyloxazol-4-yl)ethoxy]-3-methoxyphenyl}-2-methyl-2-phenoxypropionic acid], the “huPPARγ CTF Efficacy” value (huPPARγ [1]) was 93%, the IC50 (huPPARγ [2]) was 174 nM and the IC50 (huPPARα [3]) was 4120 nM. For the same molecule, the “huPPARα CTF Efficacy” value (huPPARα [4]) was 60%.

For `COc1cccc(OC(C)(Cc2ccc(OCCc3nc(-c4ccc(-c5ccccc5)cc4)oc3C)cc2)C(=O)O)c1` (centres unmarked) [Example 56, 3-{4-[2-(2-Biphenyl-4-yl-5-methyl-oxazol-4-yl)-ethoxy]-phenyl}-2-(3-methoxy-phenoxy)-2-methyl-propionic acid], the “huPPARγ CTF Efficacy” value (huPPARγ [1]) was 88%, the IC50 (huPPARγ [2]) was 99 nM and the IC50 (huPPARα [3]) was 613 nM. For the same molecule, the “huPPARα CTF Efficacy” value (huPPARα [4]) was 70%.

For `Cc1ccc(OC(C)(Cc2ccc(OCCc3nc(-c4ccc(-c5ccccc5)cc4)oc3C)cc2)C(=O)O)cc1C` (centres unmarked) [Example 34, 3-{4-[2-(2-Biphenyl-4-yl-5-methyl-oxazol-4-yl)-ethoxy]-phenyl}-2-(3,4-dimethyl-phenoxy)-2-methyl-propionic acid], the “huPPARγ CTF Efficacy” value (huPPARγ [1]) was 95%, the IC50 (huPPARγ [2]) was 40 nM and the IC50 (huPPARα [3]) was 165 nM. For the same molecule, the “huPPARα CTF Efficacy” value (huPPARα [4]) was 61%.

In the case of `Cc1oc(-c2cccc(-c3ccccc3)c2)nc1CCOc1ccc(CC(C)(Oc2ccc(F)cc2)C(=O)O)cc1` (centres unmarked) [Example 51, 3-{4-[2-(2-Biphenyl-3-yl-5-methyl-oxazol-4-yl)-ethoxy]-phenyl}-2-(4-fluoro-phenoxy)-2-methyl-propionic acid], the “huPPARγ CTF Efficacy” value (huPPARγ [1]) is reported as 160%, the IC50 (huPPARγ [2]) is reported as 56 nM and the IC50 (huPPARα [3]) is reported as 203 nM. The “huPPARα CTF Efficacy” value (huPPARα [4]) was 43%.

With `Cc1c(C)c2c(c(C)c1O)CCC(C)(COc1ccc(CC3SC(=O)NC3=O)cc1)O2` (centres unmarked) [Troglitazone, reference compound] the “huPPARα CTF Efficacy” value (huPPARα [4]) was 0%.
